What all share (format): in vivo
Test [1] has as its system Nilaparvata lugens. Put plainly: Test Example 5: drench at foot of rice seedling, release of Nilaparvata lugens larvae. As to conditions: soil, 144 h; 500 ppm active ingredient; rice seedling drenched at its foot with 5 ml, kept 7 days; twenty third-fourth instar larvae of Nilaparvata lugens; examined after 6 days. The method, then: On the other hand, a rice seedling (2 weeks after sowing, the second leaf stage) planted in a plastic cup was drenched at its foot with 5 ml of each of the diluted solutions, and kept in a greenhouse of 25° C. for 7 days. Twenty third-fourth instar larvae of Nilaparvata lugens were released, and further kept in the greenhouse for 6 days, then the number of insect of living Nilaparvata lugens parasitized on the rice was examined, and a control value was calculated according to the following equation: Control value (%)={1−(Cb×Tai)/(Cai×Tb))×100 wherein symbols represent as follows: Cb: the number of insects in a non-treated section before treatment, Cai: the number of insects in a non-treated section in observation, Tb: the number of insects in a treated-section before treatment, Tai: the number of insects in a treated-section in observation; wherein the non-treated section represents a section where the test diluted solution prepared by diluting the formulation without the present compound in Formulation Example 5 with the same amount of water as in the treated-section was used.

The test system of test [2] is Aphis gossypii. Put plainly: Test Example 1: spray on cucumber seedling inoculated with Aphis gossypii. As to conditions: topical, 144 h; 500 ppm active ingredient (Formulation Example 5 diluted with water); 20 ml sprayed on cucumber seedling with about 30 Aphis gossypii; six days after spraying. The method, then: On the other hand, on a cucumber seedling (the first true leaf stage) planted in a plastic cup was inoculated with about 30 Aphis gossypii, and leaving it for a day. Twenty ml of each of the above test spray solutions was sprayed on this seedling. Six days after spraying, the number of the surviving Aphis gossypii parasitized on the leaves of the cucumber was examined, and a control value was calculated according to the following equation: Control value (%)={1−(Cb×Tai)/(Cai×Tb))×100 wherein symbols represent as follows: Cb: the number of insects in a non-treated section before treatment, Cai: the number of insects in a non-treated section in observation, Tb: the number of insects in a treated-section before treatment, Tai: the number of insects in a treated-section in observation; wherein the non-treated section represents a section where the test spray solution prepared by diluting the formulation without the present compound in Formulation Example 5 with the same amount of water as in the treated-section was sprayed.

Test [3] concerns Nilaparvata lugens. Nature of the test: Test Example 4: spray on rice seedling, release of Nilaparvata lugens larvae. As to conditions: 144 h, read-out: Control value.
Test [4] has as its system Aphis gossypii. Nature of the test: Test Example 2: root immersion of cucumber seedling, then inoculation with Aphis gossypii. As to conditions: 168 h; 500 ppm active ingredient; cucumber root part immersed in 5 ml; 30 Aphis gossypii inoculated one day after treatment; examined after further seven days. The method, then:
A root part of a cucumber seedling (the first true leaf stage) from which soil had been washed off was immersed in 5 ml of each of the diluted solutions, and one day after treatment, on the cucumber leaf surface was inoculated with 30 Aphis gossypii (whole stage). After further seven days, the number of insect of living Aphis gossypii parasitized on the leaves of the cucumber was examined, and a control value was calculated according to the following equation: Control value (%)={1−(Cb×Tai)/(Cai×Tb))×100 wherein symbols represent as follows: Cb: the number of insects in a non-treated section before treatment, Cai: the number of insects in a non-treated section in observation, Tb: the number of insects in a treated-section before treatment, Tai: the number of insects in a treated-section in observation; wherein the non-treated section represents a section where the test diluted solution prepared by diluting the formulation without the present compound in Formulation Example 5 with the same amount of water as in the treated-section was used.

The mark [5] stands for this setting: 500 ppm active ingredient, rice seedling sprayed with 10 ml, third-fourth instar larvae of Nilaparvata lugens, after 6 days at 25° C.

For the molecule `CCS(=O)(=O)c1ccccc1-c1nc2cc(C(F)(F)F)cnc2n1COC` [Present Compound 38, 2-(2-ethylsulfonylphenyl)-3-methoxymethyl-6-trifluoromethyl-3H-imidazo[4,5-b]pyridine], the pest or weed control at 500 ppm in test [1] was at least 90%. As for `CCSc1ccccc1-c1nc2cc(C(F)(F)F)cnc2s1` [compound 183, 2-(2-ethylsulfanylphenyl)-6-(trifluoromethyl)thiazolo[5,4-b]pyridine], the pest or weed control at 500 ppm in test [2] was at least 90%.

`CCSc1ccccc1-c1nc2cc(C(F)(F)F)ccc2n1C` [Present Compound 68, 2-(2-ethylsulfanylphenyl)-1-methyl-5-trifluoromethyl-1H-benzimidazole]: the pest or weed control at 500 ppm in test [3] (setting [5]) was at least 90%. Consider `CC[S+]([O-])c1ccccc1-c1nc2cc(C(F)(F)F)cnc2o1` (centres unmarked) [Present Compound 82, 2-(2-ethylsulfinylphenyl)-6-trifluoromethyloxazolo[5,4-b]pyridine], for which, in test [4], the pest or weed control at 500 ppm was at least 90%. `CC[S+]([O-])c1ccccc1-c1nc2cc(C(F)F)cnc2n1C` (centres unmarked) [Present Compound 53, 6-difluoromethyl-2-(2-ethylsulfinylphenyl)-3-methyl-3H-imidazo[4,5-b]pyridine]: the pest or weed control at 500 ppm in test [4] and in test [2] was at least 90% each time.

With `CCSc1cc(Br)ccc1-c1nc2cc(C(F)(F)F)cnc2n1C` [compound 238, 2-(4-bromo-2-ethylsulfanylphenyl)-3-methyl-6-trifluoromethyl-3H-imidazo[4,5-b]pyridine], in test [3] (setting [5]), the pest or weed control at 500 ppm was at least 90%. `Cn1c(-c2ccccc2[S+]([O-])C(C)(C)C)nc2cc(C(F)(F)F)cnc21` (centres unmarked) [Present Compound 16, 2-(2-tert-butylsulfinylphenyl)-3-methyl-6-trifluoromethyl-3H-imidazo[4,5-b]pyridine] had a pest or weed control at 500 ppm in test [4] of at least 90%. Turning to `CCS(=O)(=O)c1ccccc1-c1nc2cc([S+]([O-])C(F)(F)F)cnc2n1C` (centres unmarked) [compound 214, 2-(2-ethylsulfonylphenyl)-6-trifluoromethylsulfinyl-3-methyl-3H-imidazo[4,5-b]pyridine], the pest or weed control at 500 ppm in test [1] was at least 90%.

For the molecule `CCSc1ccccc1-c1nc2ncc(C(F)(F)F)cc2n1C` [Present Compound 66, 2-(2-ethylsulfanylphenyl)-1-methyl-6-trifluoromethyl-1H-imidazo[4,5-b]pyridine], the pest or weed control at 500 ppm in test [4] and in test [2] was at least 90% in each case. In test [2], `CC[S+]([O-])c1ccccc1-c1nc2cc(C(F)(F)F)cc(Cl)c2n1C` (centres unmarked) [Present Compound 72, 7-chloro-2-(2-ethylsulfinylphenyl)-1-methyl-5-trifluoromethyl-1H-benzimidazole] yielded a pest or weed control at 500 ppm of at least 90%. On to `CC[S+]([O-])c1ccccc1-c1nc2nc(C(F)(F)F)ccc2n1C` (centres unmarked) [compound 167, 2-(2-ethylsulfinylphenyl)-1-methyl-5-trifluoromethyl-1H-imidazo[4,5-b]pyridine], for which the pest or weed control at 500 ppm in test [4] was at least 90%.

In test [4], `CCOCn1c(-c2ccccc2SCC)nc2ncc(C(F)(F)F)cc21` [Present Compound 34, 1-ethoxymethyl-2-(2-ethylsulfanylphenyl)-6-trifluoromethyl-1H-imidazo[4,5-b]pyridine] yielded a pest or weed control at 500 ppm of at least 90%.

As for `CC[S+]([O-])c1ccccc1-c1nc2cc(I)cnc2n1C` (centres unmarked) [Present Compound 46, 2-(2-ethylsulfinylphenyl)-6-iodo-3-methyl-3H-imidazo[4,5-b]pyridine], the pest or weed control at 500 ppm in test [4], in test [2] and in test [3] (setting [5]) was at least 90% each time.

On to `CCS(=O)(=O)c1ccccc1-c1nc2cc(C(F)(F)F)cnc2o1` [Present Compound 83, 2-(2-ethylsulfonylphenyl)-6-trifluoromethyloxazolo[5,4-b]pyridine], for which the pest or weed control at 500 ppm in test [4] and in test [3] (setting [5]) was at least 90% each time. On to `CSc1ccccc1-c1nc2cc(C(F)(F)F)cnc2n1C` [Present Compound 1, 3-methyl-2-(2-methylsulfanylphenyl)-6-trifluoromethyl-3H-imidazo[4,5-b]pyridine], for which the pest or weed control at 500 ppm in test [3] (setting [5]) is at least 90%. With `CCOCn1c(-c2ccccc2SCC)nc2cc(C(F)(F)F)cnc21` [Present Compound 33, 3-ethoxymethyl-2-(2-ethylsulfanylphenyl)-6-trifluoromethyl-3H-imidazo[4,5-b]pyridine], the pest or weed control at 500 ppm in test [4] is at least 90%. The same measure, in the same setting: the value for `CCS(=O)(=O)c1ccccc1-c1nc2cc(C(F)(F)F)ccc2n1C` [Present Compound 70, 2-(2-ethylsulfonylphenyl)-1-methyl-5-trifluoromethyl-1H-benzimidazole] was at least 90%; that for `CC[S+]([O-])c1ccccc1-c1nc2cc(Br)cnc2n1C` (centres unmarked) [Present Compound 43, 6-bromo-2-(2-ethylsulfinylphenyl)-3-methyl-3H-imidazo[4,5-b]pyridine] was at least 90%. For `CSc1ccccc1-c1nc2cc(C(F)(F)F)ccc2s1` [Present Compound 84, 2-(2-methylsulfanylphenyl)-5-trifluoromethylbenzothiazole], the pest or weed control at 500 ppm in test [3] (setting [5]) was at least 90%. On the same count and under the same terms, the figure for `CCSc1cc(C(F)(F)F)ccc1-c1nc2cc(S(F)(F)(F)(F)F)ccc2n1C` [compound 314, 2-(2-ethylsulfanyl-4-trifluoromethyl-phenyl)-1-methyl-5-(pentafluorosulphur)-1H-benzimidazole] is at least 90%; for `CC(C)Sc1ccccc1-c1nc2cc(C(F)(F)F)cnc2n1C` [Present Compound 12, 2-(2-isopropylsulfanylphenyl)-3-methyl-6-trifluoromethyl-3H-imidazo[4,5-b]pyridine] it is at least 90%. In the case of `CC[S+]([O-])c1ccccc1-c1nc2cc(C(F)(F)F)ccc2n1C` (centres unmarked) [Present Compound 69, 2-(2-ethylsulfinylphenyl)-1-methyl-5-trifluoromethyl-1H-benzimidazole], the pest or weed control at 500 ppm in test [4] and in test [3] (setting [5]) was at least 90% each time.

In test [2], `CCSc1ccccc1-c1nc2ccc(C(F)(F)F)nc2n1C` [Present Compound 151, 2-(2-ethylsulfanylphenyl)-3-methyl-5-trifluoromethyl-3H-imidazo[4,5-b]pyridine] displayed a pest or weed control at 500 ppm of at least 90%. `CCS(=O)(=O)c1ccccc1-c1nc2cc(C(F)(F)F)cnc2s1` [compound 185, 2-(2-ethylsulfonylphenyl)-6-(trifluoromethyl)thiazolo[5,4-b]pyridine] displayed a pest or weed control at 500 ppm in test [1] of at least 90%. The molecule `CCOCn1c(-c2ccccc2S(=O)(=O)CC)nc2cc(C(F)(F)F)cnc21` [Present Compound 36, 2-(2-ethylsulfonylphenyl)-3-ethoxymethyl-6-trifluoromethyl-3H-imidazo[4,5-b]pyridine] registered a pest or weed control at 500 ppm in test [4] of at least 90%. As for `CCSc1ccccc1-c1nc2cc(C(F)(F)C(F)(F)C(F)(F)F)cnc2n1C` [Present Compound 128, 2-(2-ethylsulfanyl-phenyl)-6-heptafluoropropyl-3-methyl-3H-imidazo[4,5-b]pyridine], in test [3] (Nilaparvata lugens), the pest or weed control at 500 ppm was at least 90%.

The values are drawn from patent US8853238B2, “Fused heterocyclic compound and use thereof for pest control” (Sumitomo Chemical Company, Limited, priority 2010, dated 2014).
